Laboratory results published in ChEMBL document CHEMBL4651402, “Screening of ~5500 FDA-approved drugs and clinical candidates for anti-SARS-CoV-2 activity” (2021).

Tested on: SARS-CoV-2
Test: microbe, parasite or virus in culture
Details: Severe acute respiratory syndrome coronavirus 2, Vero C1008, 48 h

## COCCNc1cc(NC(=O)N2CCCc3cc(CN4CCN(C)CC4=O)c(C=O)nc32)ncc1C#N [FGF401]
  IC50: > 20 µM
read-out: pIC50 (converted)
  IC50: > 20 µM

## Cc1nc2ccc(-n3ncc(C(=O)c4cc5ccccc5[nH]4)c3N)cc2[nH]1 [FGFR INHIBITOR DEBIO 1347]
  IC50: > 20 µM
read-out: pIC50 (converted)
  IC50: > 20 µM

## O=c1[nH]c(=O)n([C@@H]2O[C@H](CO)[C@@H](O)[C@@H]2F)cc1I [FIALURIDINE]
  IC50: > 20 µM
read-out: pIC50 (converted)
  IC50: > 20 µM

## CCOc1ccc(-c2ccc(Cn3c(CC(C)(C)C(=O)O)c(SC(C)(C)C)c4cc(OCc5ccc(C)cn5)ccc43)cc2)cn1 [FIBOFLAPON]
  IC50: > 20 µM
read-out: pIC50 (converted)
  IC50: > 20 µM

## CON(C)C(=O)N1N=C(c2cc(F)ccc2F)S[C@@]1(CCCN)c1ccccc1 [FILANESIB]
  IC50: > 20 µM
read-out: pIC50 (converted)
  IC50: > 20 µM

## O=C(Nc1nc2cccc(-c3ccc(CN4CCS(=O)(=O)CC4)cc3)n2n1)C1CC1 [FILGOTINIB]
  IC50: > 20 µM
read-out: pIC50 (converted)
  IC50: > 20 µM

## COc1cc(C(=O)OC2CC3CCC(C2)N3C)ccc1O (stereo not given) [FILLALBIN]
  IC50: > 20 µM
read-out: pIC50 (converted)
  IC50: > 20 µM

## COc1ccc(-c2nc(N3CCOCC3)c3sc(CN(C)c4ncc(C(=O)NO)cn4)cc3n2)cn1 [FIMEPINOSTAT]
  IC50: > 20 µM
read-out: pIC50 (converted)
  IC50: > 20 µM

## CCCCCCCCc1ccc(CCC(N)(CO)CO)cc1 [FINGOLIMOD]
  IC50: > 20 µM
read-out: pIC50 (converted)
  IC50: > 20 µM

## COc1ccc(C(=O)NC2(C(=O)O)Cc3ccccc3C2)cc1OCCc1cccc(C)c1 [FIPAXALPARANT]
  IC50: > 20 µM
read-out: pIC50 (converted)
  IC50: > 20 µM

## O=C(COc1ccc(Cl)cc1)N1CCN(Cc2ccc3c(c2)OCO3)CC1 [FIPEXIDE]
  IC50: > 20 µM
read-out: pIC50 (converted)
  IC50: > 20 µM

## N#Cc1nn(-c2c(Cl)cc(C(F)(F)F)cc2Cl)c(N)c1[S+]([O-])C(F)(F)F (stereo not given) [FIPRONIL]
  IC50: > 20 µM
read-out: pIC50 (converted)
  IC50: > 20 µM

## COc1ccccc1[C@H](Cn1c(=O)n(C(C)(C)C(=O)O)c(=O)c2c(C)c(-c3ncco3)sc21)OC1CCOCC1 [FIRSOCOSTAT]
  IC50: > 20 µM
read-out: pIC50 (converted)
  IC50: > 20 µM

## O=c1cc(-c2ccccc2)oc2ccccc12 [FLAVONE]
  IC50: > 20 µM
read-out: pIC50 (converted)
  IC50: > 20 µM

## O=c1c(O)c(-c2ccccc2)oc2ccccc12 [FLAVONOL]
  IC50: > 20 µM
read-out: pIC50 (converted)
  IC50: > 20 µM

## Cc1c(-c2ccccc2)oc2c(C(=O)OCCN3CCCCC3)cccc2c1=O [FLAVOXATE]
  IC50: > 20 µM
read-out: pIC50 (converted)
  IC50: > 20 µM

## CN1CCC(O)(c2ccc(F)cc2)C(C(=O)c2ccc(F)cc2)C1 (stereo not given) [FLAZALONE]
  IC50: > 20 µM
read-out: pIC50 (converted)
  IC50: > 20 µM

## O=C(NCC1CCCCN1)c1cc(OCC(F)(F)F)ccc1OCC(F)(F)F (stereo not given) [FLECAINIDE]
  IC50: > 20 µM
read-out: pIC50 (converted)
  IC50: > 20 µM

## CN1CCN(c2c(F)cc3c(=O)c(C(=O)O)cn(CCF)c3c2F)CC1 [FLEROXACIN]
  IC50: > 20 µM
read-out: pIC50 (converted)
  IC50: > 20 µM

## CC(C)(CNC(N)=O)NCC(O)COC(=O)c1ccccc1F (stereo not given) [FLESTOLOL]
  IC50: > 20 µM
read-out: pIC50 (converted)
  IC50: > 20 µM

## O=c1[nH]c2ccccc2n1CCN1CCN(c2cccc(C(F)(F)F)c2)CC1 [FLIBANSERIN]
  IC50: > 20 µM
read-out: pIC50 (converted)
  IC50: > 20 µM

## COc1ccc(Cl)cc1[C@]1(F)C(=O)Nc2cc(C(F)(F)F)ccc21 [FLINDOKALNER]
  IC50: > 20 µM
read-out: pIC50 (converted)
  IC50: > 20 µM

## O=C(OCC(O)CO)c1ccccc1Nc1ccnc2c(C(F)(F)F)cccc12 (stereo not given) [FLOCTAFENINE]
  IC50: > 20 µM
read-out: pIC50 (converted)
  IC50: > 20 µM

## CNc1ccc(/C=C/c2ccc(OCCOCCOCCF)nc2)cc1 [FLORBETAPIR]
  IC50: > 20 µM
read-out: pIC50 (converted)
  IC50: > 20 µM

## Fc1ccc(-c2ccc3c(c2)[nH]c2ccncc23)cn1 [FLORTAUCIPIR]
  IC50: > 20 µM
read-out: pIC50 (converted)
  IC50: > 20 µM

## Cn1cc([S+](C)[O-])c(=O)c2ccc(F)cc21 (stereo not given) [FLOSEQUINAN]
  IC50: > 20 µM
read-out: pIC50 (converted)
  IC50: > 20 µM

## Cc1onc(-c2c(F)cccc2Cl)c1C(=O)N[C@@H]1C(=O)N2[C@@H]1SC(C)(C)[C@@H]2C(=O)O [FLOXACILLIN]
  IC50: > 20 µM
read-out: pIC50 (converted)
  IC50: > 20 µM

## O=c1[nH]c(=O)n([C@H]2C[C@H](O)[C@@H](CO)O2)cc1F [FLOXURIDINE]
  IC50: > 20 µM
read-out: pIC50 (converted)
  IC50: > 20 µM

## COc1ccccc1N1CCN(CCCC(=O)c2ccc(F)cc2)CC1 [FLUANISONE]
  IC50: > 20 µM
read-out: pIC50 (converted)
  IC50: > 20 µM

## COC(=O)Nc1nc2cc(C(=O)c3ccc(F)cc3)ccc2[nH]1 [FLUBENDAZOLE]
  IC50: > 20 µM
read-out: pIC50 (converted)
  IC50: > 20 µM

## CN(C)C1CCc2[nH]c3c(F)cc(F)cc3c2C1 (stereo not given) [FLUCINDOLE]
  IC50: > 20 µM
read-out: pIC50 (converted)
  IC50: > 20 µM

## OC(Cn1cncn1)(Cn1cncn1)c1ccc(F)cc1F [FLUCONAZOLE]
  IC50: > 20 µM
read-out: pIC50 (converted)
  IC50: > 20 µM

## Nc1nc(=O)[nH]cc1F [FLUCYTOSINE]
  IC50: > 20 µM
read-out: pIC50 (converted)
  IC50: > 20 µM

## Nc1nc(F)nc2c1ncn2[C@@H]1O[C@H](COP(=O)(O)O)[C@@H](O)[C@@H]1O [FLUDARABINE PHOSPHATE]
  IC50: > 20 µM
read-out: pIC50 (converted)
  IC50: > 20 µM

## O=C(C[n+]1ccn(CC(OCc2ccc(Cl)cc2Cl)c2ccc(Cl)cc2Cl)c1)c1ccc(F)cc1 (stereo not given) [FLUDAZONIUM]
  IC50: > 20 µM
read-out: pIC50 (converted)
  IC50: > 20 µM
